In brackets after ≈: the same amount, converted by molar mass. Where two headings read alike, the source gives them in different places. Blank lines part the entries; values can stand above or below the compound they belong to. Starred links: 1 amine or outer side, 2 acyl side, 3 side chain; linkers in the order of their positions; H or OH if unused. Positions of bridges follow the written chain, without caps; N, C: chain ends. Non-standard residues stand in square brackets, D forms with d. Residues, ends and D or L forms follow the SMILES beside them. *: point of attachment. X6 = O=C(CCC(=O)[*:3])N[C@@H](CS[*:2])C(=O)[*:1]; X7 = O=C(CCC(=O)[*:3])N[C@@H](CC[*:2])C(=O)[*:1]; Trp(7-Me) = Cc1cccc2c(C[C@H](N)C(=O)O)c[nH]c12; αMeLys(Me2) = CN(C)CCCC[C@](C)(N)C(=O)O; 2Nal = N[C@@H](Cc1ccc2ccccc2c1)C(=O)O; d2Nal = N[C@H](Cc1ccc2ccccc2c1)C(=O)O; Palmitoyl = CCCCCCCCCCCCCCCC(=O)*; 3Pal = N[C@@H](Cc1cccnc1)C(=O)O; αMeL = CC(C)C[C@](C)(N)C(=O)O; Pen = CC(C)(S)[C@H](N)C(=O)O; Suc = O=C(CCC(=O)[*:2])[*:1]; αMeK = C[C@](N)(CCCCN)C(=O)O; Thp = NC1(C(=O)O)CCOCC1; Me2NCH2CH2 = CN(C)CC*; Ahx = NCCCCCC(=O)O; Sar = CNCC(=O)O
What was measured:
[1] = Solubility testing of peptides at different pH; assay type: physicochemical; conditions: target concentration 1 mg/ml, 2 hours agitation
Procedure: Prior to the solubility measurement of a synthesized peptide batch, its purity was determined through UPLC/MS (methods B-G).
For solubility testing the target concentration was 1 mg pure compound/ml. Therefore, solutions from solid samples were prepared in a buffer system at a concentration of 1 mg/mL compound. The solid samples were obtained by drying down aliquots of a dimethyl sulfoxide stock solution using a Thermo Speedvac vacuum centrifuge. The dry down time was 3 hours. • Solubility buffer system A) 50 mM HCl pH 1.2 • Solubility buffer system B) 50 mM phosphate buffer pH 6.5 • Solubility buffer system C) 50 mM phosphate buffer pH 7.4 • Solubility buffer system D) 50 mM phosphate buffer pH 9.0
UPLC-UV (Method A) was performed after 2 hours of gentle agitation from the filtered (0.45 μm filter plates) solutions, which was obtained by 10 mins of centrifugation forced filtration at 1500 RCF (relative centrifugal acceleration).
The solubility was determined by the comparison of the UV peak area of 2 μL-injections of a buffered sample diluted 1:5 with a standard curve of a dimethyl sulfoxide reference sample of the diluted in dimethyl sulfoxide with known concentration. The different extinction coefficients were taken into account for the calculation.

[2] = biological target: T1, human interleukin-23 receptor (recombinant human IL-23R-Fc chimera) (Homo sapiens, UniProt Q5VWK5); assay: Human ELISA IL23/IL23R (assay for specific human IL23R antagonists); assay type: binding
T1 construct: Fc (IgG Fc fusion)
Procedure: Antagonism of compounds for human interleukin-23 receptor antagonists, was determined by an ELISA assay.
A 384-well plate was coated with 50 μl/well of human IL23 at a final concentration of […] and incubated overnight at 4° C. The wells were washed 3 times with 80 μl wash buffer and blocked with 80 μl blocking buffer for 60 minutes at room temperature and washed again. 20 μl of serially diluted test peptides was added to each well and subsequently 20 μl of recombinant human IL-23R-Fc chimera at final concentration of 0.1 μg/ml. The plate was incubated for 60 minutes at room temperature. After the wells were washed, bound IL23R-Fc was detected with goat anti-hu-IgG1-HRP antibody. Signals were visualized with QuantaBlu Fluorogenic Peroxidase Substrate.

[3] = Chemical stability assessment of peptides (relative purity loss); assay type: physicochemical; conditions: 24 hours at 37° C.
Procedure: Purity of a peptide batch was determined through UPLC/MS (Methods B-G) prior to chemical stability measurement. The target concentration was 1 mg/ml pure compound. Solutions from solid samples were prepared in the following buffer systems with a concentration of 1 mg/ml compound based on the previously determined % purity: • Solubility buffer system A) 50 mM HCl pH 1.2+Acetonitrile (1:1) • Solubility buffer system B) 50 mM phosphate buffer pH 6.5+Acetonitrile (1:1) • Solubility buffer system C) 50 mM phosphate buffer pH 7.4+Acetonitrile (1:1)
Prepared solutions were stored for 24 hours at 2° C. and 37° C. After this time course, the samples were centrifuged for 15 min at 2500 RCF to create a 1:5 dilution of the supernatant. Then 2 μl of the dilution were analysed with UHPLC-UV.
The chemical stability was rated through the relative loss of purity calculated by the equation:
[(purity after 0 hours at 37° C.)−(purity after 24 hours at 37° C.)]/(purity after 0 hours at 37° C.)]*100%
The purity is calculated as [(peak area peptide)/(total peak area)]*100%.

[4] = tested on: IL-23 induced STAT3 signaling in HEK-Blue™ IL-23 cells; assay: IL-23 induced STAT3 signaling in HEK-Blue IL-23 cells (SEAP reporter); assay type: cell-based; conditions: human IL23 0.25 ng/ml, read-out: pSTAT3
Excerpt: HEK-Blue™ IL-23 cells (Invivogen) are designed for the detection of bioactive human (hIL-23) and murine IL-23 (mIL-23) by monitoring the activation of the STAT3 pathway. Binding of IL-23 to its receptor on the surface of HEK-Blue™ IL-23 cells triggers a signalling cascade leading to the activation of STAT3 and the subsequent production of secreted embryonic alkaline phosphatase (SEAP). This can be readily assessed using QUANTI-Blue™ Solution, a SEAP detection reagent.
HEK-Blue™ IL-23 cells were cultured as described by Invivogen.
On the first day of assay 10 μL of the HEK-Blue IL23 cell suspension (final concentration: 10,000 cells/well) and 10 μl of serially diluted peptides solutions were dispensed into a 384-well assay plate. After pre-incubation of the reaction mixtures at 37° C./5% CO2/95% humidity for 60 minutes, 10 μl of the human IL23 cytokine (final concentration: 0.25 ng/ml) was added to each well for the STAT3 signalling activation. The plate was incubated overnight at 37° C./5% CO2/95% humidity.
On the second day 20 μl per well of Quanti-Blue detection solution (prepared according to the manufacture instruction) was dispensed into a new 384-well plate and followed by the transfer of 5 μl supernatant of the overnight incubated cell/sample mixtures. After incubation of 45 min at room temperature signals were measured with PHERAstar (BMG) at OD 620-655 nm. Dose response data were fitted with XLfit.

[5] = Table 10, read-out: Human ELISA IL23/IL23R IC50

Compound: CCCCCCCCCCCCCCCC(=O)NCCCC[C@]1(C)NC(=O)[C@H](Cc2ccc3ccccc3c2)NC(=O)[C@H](Cc2ccc(OCCN(C)C)cc2)NC(=O)[C@@H]2CSSC[C@H](NC(=O)CCC(=O)NCCCC[C@@H](C(=O)N[C@@H](CC(N)=O)C(=O)N[C@@H](Cc3cccnc3)C(=O)N(C)CC(N)=O)NC1=O)C(=O)NCCCC[C@H](NC(C)=O)C(=O)N[C@@H](Cc1c[nH]c3c(C)cccc13)C(=O)N[C@@H](CCCCNC(C)=O)C(=O)N2 [compound 101] (Ac-K[Trp(7-Me)]K(Ac)CY(Me2NCH2CH2)[2Nal][αMeK](Palmitoyl)KN[3Pal][Sar]-NH2; linker 1-4-8 via X6)
solubility at 2 h ([1]; 50 mM HCl buffer, 50 mM HCl pH 1.2, read-out: Solubility Buffer pH 1.2): ≥ 1430 µg/mL
solubility at 2 h ([1]; 50 mM phosphate buffer pH 6.5, read-out: Solubility Buffer pH 6.5): 750 µg/mL (≈ 354 µM)
solubility at 2 h ([1]; 50 mM phosphate buffer pH 7.4, read-out: Solubility Buffer pH 7.4): ≥ 870 µg/mL
solubility at 2 h ([1]; 50 mM phosphate buffer pH 9.0, read-out: Solubility Buffer pH 9.0): 810 µg/mL (≈ 382 µM)
IC50 [2, 5]: 3.47 nM
Chemical stability (relative purity loss) Buffer pH 1.2 ([3]; 50 mM HCl pH 1.2 + acetonitrile (1:1)): 12.0%
Chemical stability (relative purity loss) Buffer pH 6.5 ([3]; 50 mM phosphate buffer pH 6.5 + acetonitrile (1:1)): 10.0%
Chemical stability (relative purity loss) Buffer pH 7.4 ([3]; 50 mM phosphate buffer pH 7.4 + acetonitrile (1:1)): 9.0%

Compound: CC(=O)NCCCC[C@@H]1NC(=O)[C@H](Cc2c[nH]c3c(C)cccc23)NC(=O)[C@@H](NC(C)=O)CCCCNC(=O)[C@@H]2CCSC[C@H](NC1=O)C(=O)N[C@@H](Cc1ccc(OCCN(C)C)cc1)C(=O)N[C@H](Cc1ccc3ccccc3c1)C(=O)NC1(CCOCC1)C(=O)N[C@H](C(=O)N[C@@H](CC(N)=O)C(=O)N[C@@H](Cc1cccnc1)C(=O)N(C)CC(N)=O)CCCCNC(=O)CCC(=O)N2 [compound 122] (Ac-K[Trp(7-Me)]K(Ac)CY(Me2NCH2CH2)[d2Nal][Thp]KN[3Pal][Sar]-NH2; linker 1-4-8 via X7)
IC50 [2, 5]: 2.3 nM
IC50 [4]: 0.37 nM

Further lines, with some results ahead:

IC50 ([2]; Table 11, Pen peptide compounds, read-out: Elisa IC50 Pen): 33.5 nM
Compound: COc1ccc(C[C@@H]2NC(=O)[C@H]3NC(=O)[C@H](CCC(N)=O)NC(=O)[C@H](Cc4c[nH]c5ccccc45)NC(=O)[C@H]([C@@H](C)O)NC(=O)[C@H](CC(N)=O)NC(=O)[C@@H](NC(=O)CCCCCNC(=O)C[C@@H](C(=O)N[C@@H](CC(N)=O)C(=O)N[C@@H](CC(N)=O)C(N)=O)NC(=O)[C@](C)(CC(C)C)NC(=O)[C@H](Cc4ccc5ccccc5c4)NC2=O)C(C)(C)SSC3(C)C)cc1 [compound 162] ([Ahx][Pen]NTWQ[Pen]Y(Me)[2Nal][αMeL]DNN-NH2; disulfide 2-7; lactam N-11)

IC50 [2, 5]: 0.91 nM
Compound: Cc1cccc2c(C[C@@H]3NC(=O)[C@H]([C@@H](C)O)NC(=O)[C@H](CC(N)=O)NC(=O)[C@@H]4CSSC[C@H](NC(=O)[C@H](CC(C)C)NC3=O)C(=O)N[C@@H](Cc3ccc(OCCN(C)C)cc3)C(=O)N[C@@H](Cc3ccc5ccccc5c3)C(=O)N[C@@](C)(CCCCN(C)C)C(=O)N[C@H](C(=O)N[C@@H](CC(N)=O)C(=O)N[C@@H](Cc3cccnc3)C(N)=O)CCCCNC(=O)CCC(=O)N4)c[nH]c12 [compound 150] (CNT[Trp(7-Me)]LCY(Me2NCH2CH2)[2Nal][αMeLys(Me2)]KN[3Pal]-NH2; disulfide 1-6; linker N-10 via Suc)
IC50 [4]: 0.13 nM

IC50 [2, 5]: 0.45 nM
Compound: Cc1cccc2c(C[C@@H]3NC(=O)[C@H]([C@@H](C)O)NC(=O)[C@H](CC(N)=O)NC(=O)[C@@H]4CSSC[C@H](NC(=O)[C@H](CCC(N)=O)NC3=O)C(=O)N[C@@H](Cc3ccc(OCCN(C)C)cc3)C(=O)N[C@@H](Cc3ccc5ccccc5c3)C(=O)N[C@@](C)(CCCCN(C)C)C(=O)N[C@H](C(=O)N[C@@H](CC(N)=O)C(=O)N[C@@H](Cc3cccnc3)C(=O)N(C)CC(N)=O)CCCCNC(=O)CCC(=O)N4)c[nH]c12 [compound 153] (CNT[Trp(7-Me)]QCY(Me2NCH2CH2)[2Nal][αMeLys(Me2)]KN[3Pal][Sar]-NH2; disulfide 1-6; linker N-10 via Suc)
IC50 [4]: 0.06 nM

From patent US20260258084A1, “New Peptides as Selective IL-23 Receptor Antagonists” (Sanofi, priority 2022, published 2026)
